# According to patent US11524941B2, “Pyrazole compounds as LSD1 inhibitors and applications thereof” (MEDSHINE DISCOVERY INC., priority 2020, dated 2022):
# Where a name gives a salt, the structure may show the parent alone.
# Tested on: NCI-H1417 cells
# Assay: Proliferation inhibitory activity against NCI-H1417 cells (CellTiter-Glo)
# Assay type: cell-based
# Details: Homo sapiens, 240 h, 10 days incubation, starting concentration 10 μM, read-out: IC50 (nM), NCI-H1417 cell proliferation inhibition
# Protocol: Experimental purpose: To detect the inhibitory activity of the compounds against NCI-H1417 cells.
# Experimental materials: RPMI 1640 medium, fetal bovine serum, Promega CellTiter-Glo reagent. The NCI-H1417 cell line was purchased from ATCC. Envision multilabel analyzer (PerkinElmer).
# Experimental method: The compounds were dissolved to 10 mM, and the compounds were diluted 5 times with DMSO in the compound plate. The starting concentration of the compound was 2 mM, diluted 3 times with Bravo to 10 concentrations. Echo was used to transfer 250 nL to the top and bottom double wells of a blank 384 cell plate, and 250 nL of DMSO/compound was added to a cell suspension of 1000 cells/50 μL per well, and the compounds were diluted 200 times, i.e. the starting concentration was 10 μM. Cell plates were incubated in a carbon dioxide incubator for 10 days. 25 μL of Promega CellTiter-Glo reagent per well was added to the cell plate, and the mixture was shaken for 10 minutes at room temperature to stabilize the luminescence signal. Readings were taken using a PerkinElmer Envision multilabel analyzer.
# Data analysis: The equation (Max-Ratio)/(Max-Min)*100% was used to convert the original data into inhibition rate, the IC50 value can be obtained by curve fitting with four parameters. (derived from 205 mode in XLFIT5, iDBS)
compound,measurement,value
CC(C)(O)Cn1nnc2cc(-c3cn(CC(=O)N4CCC[C@@H](N)C4)nc3-c3ccc(C#N)c(F)c3)ccc21 [Hydrochloride of compound 22],IC50,107 nM
